Source: article PMC3651166, “Differential Cytotoxic Activity of a Novel Palladium-Based Compound on Prostate Cell Lines, Primary Prostate Epithelial Cells and Prostate Stem Cells” (PLoS ONE, 2013)
“And” between values parts separate entries of the source, which are not always exact repeats. Identical values can stand only once. Like-named read-outs stand apart in the source and are kept apart here.

Experiments:
Type in all cases: cell-based, human
PNT1A, PNT2-C2, BPH-1 = test: MTS assay, average over normal/benign cell lines; conditions: average of PNT1A
Protocol: (§1) In this study, six different prostate cell lines (PNT1A, PNT2-C2, BPH-1, PC-3, LNCaP, P4E6) were used (Table 1). These cell lines encompass the spectrum of cellular differentiation status (basal, intermediate and luminal phenotypes), as well as the spectrum of normal, early cancer and late cancer. BPH-1 is derived from benign prostate hyperplasia (BPH), while PNT2-C2 and PNT1A are derived from normal prostate. PC-3, LNCaP and P4E6 are cancer cell lines. LNCaP, PNT2-C2, PNT1A were grown in RPMI medium with 10% FCS (foetal calf serum); PC-3 was grown in Ham’s F-12 medium with 7% FCS; BPH-1 was grown in RPMI medium with 5% FCS; P4E6 was grown in KSFM (Keratinocyte serum free medium) with 2% FCS. No antibiotics were used in any media. The cells were incubated at 37°C in a humidified atmosphere containing 5% CO2.
(§2) This assay was performed for the initial screening of the effect of the Pd complex on the cell lines and the whole cell population of primary cultures. The CellTiter 96® Aqueous One Solution Cell Proliferation Assay kit (G3580, Promega, Madison, WI, USA) was used and the manufacturer’s instructions were followed. Briefly, after treating cells that were seeded at a density of 5,000 cells per well in a 96-well plate in triplicate for a desired period (24 h, 48 h, 72 h), 20 µL of reagent was added to each well. Following 2.5 h incubation at 37°C, the absorbance was read at 485 nm using a plate reader (PolarStar Optima, BMG Labtech, UK). Percent viability was calculated using the formula (% Viability = [(Sample Absorbance/Control Absorbance)]×100.
MTS and ATP assays were performed in triplicate and data presented as the mean +/− standard deviation. IC50 values (Table 3 and Table 4) were calculated from graphs of transformed data following application of the nonlinear regression (curve fit) that represents the log(inhibitor) ‘v’ normalized response (GraphPad Prism software) (Supplementary Figures S1 and S2). For significance calculations, the Wilcoxon rank sum test was used (Sigmaplot). […]

[1] = system: PNT2-C2, BPH-1, P4E6, PC-3 and LNCaP; test: Flow cytometry cell cycle analysis, cell lines
Protocol: Following drug treatment, floating cells in the media were pooled with adherent cells, which were collected by trypsinisation. Following centrifugation cells were resuspended in 0.5 ml PBS. Cells were fixed in 2 ml ice cold 70% ethanol, which was added in a dropwise fashion while vortexing. Cells were incubated on ice for 30 min then washed in 5 ml PBS and resuspended in 0.4 ml PBS. Following storage at 4°C overnight, 50 µl of RNAse (1 mg/ml) and 50 µl of propidium iodide (1 mg/ml) were added to the cells. Following incubation at 37°C for 30 min the cells were analysed for 2N and 4N DNA content on a flow cytometer (Cyan ADP Analyser, Beckman Coulter).

PNT1A = test: MTS assay, anti-growth effect on cell line
Protocol: as §1, §2
(§3) MTS and ATP assays were performed in triplicate and data presented as the mean +/− standard deviation. IC50 values (Table 3 and Table 4) were calculated from graphs of transformed data following application of the nonlinear regression (curve fit) that represents the log(inhibitor) ‘v’ normalized response (GraphPad Prism software) (Supplementary Figures S1 and S2). For significance calculations, the Wilcoxon rank sum test was used (Sigmaplot). Flow cytometry analysis was carried out in triplicate and results are presented as an average with error bars indicating the standard error.

P4E6 = test: MTS assay, anti-growth effect on cell line
Protocol: as §1, §2, §3

PC-3 = test: MTS assay, anti-growth effect on cell line
Protocol: as §1, §2, §3

BPH-1 = test: MTS assay, anti-growth effect on cell line
Protocol: as §1, §2, §3

LNCaP = test: MTS assay, anti-growth effect on cell line
Protocol: as §1, §2, §3

PNT2-C2 = test: MTS assay, anti-growth effect on cell line
Protocol: as §1, §2, §3

[2] = system: primary cultures from BPH and Gleason 6/7 cancers; test: MTS assay, primary cultures BPH and Gleason 6/7 together
Description: Primary prostate epithelial cells were isolated from human tissue samples. The samples were collected with ethical permission from York District Hospital (York, UK) and Castle Hill Hospital (Cottingham, UK). Benign prostatic hyperplasia (BPH) and prostate cancer samples were obtained from TURP (transurethral resection of the prostate), radical prostatectomy (laparoscopic and open) and cystectomy operations. All patients gave written consent for their tissue to be used for research and all patient samples were anonymised. Permission was approved by the Local Research Ethical Committees, associated with York District Hospital and Castle Hill Hospital. Permission was administered by the Yorkshire and Humber Research Ethics Committee. […]
This assay was performed for the initial screening of the effect of the Pd complex on the cell lines and the whole cell population of primary cultures. […] Following 2.5 h incubation at 37°C, the absorbance was read at 485 nm using a plate reader (PolarStar Optima, BMG Labtech, UK). Percent viability was calculated using the formula (% Viability = [(Sample Absorbance/Control Absorbance)]×100.

cleaved caspase-3 = test: Western blotting for apoptosis, cell lines
Protocol: Following drug treatment, cell lysates were harvested using Cytobuster Protein Extraction Reagent (71009, EMD Millipore, Darmstadt, Germany) with protease inhibitors (cOmplete, EDTA-free Protease Inhibitor Cocktail Tablets, Roche Applied Science, UK). 20 µg of protein extract were loaded on 12% SDS-PAGE gels and wet-transferred to a PVDF membrane. Antibodies used include: monoclonal anti-β-actin 1∶5000 (A5316, Sigma-Aldrich), anti-LC3B 1∶3000 (Ab51520, abcam), cleaved caspase-3 (Asp175) 1∶1000 (9661S, Cell Signaling Technology) and secondary antibodies were Rabbit anti-mouse-HRP 1∶10000 (P0260, Dako) and anti-rabbit IgG HRP-linked 1∶5000 (Cell Signaling Technology Inc. 7074S). Kaleidoscope protein marker was run on each gel (161-0324, Bio-Rad).

BPH primary cells = test: MTS assay, primary cultures from benign prostate hyperplasia
Description: Primary prostate epithelial cells were isolated from human tissue samples. The samples were collected with ethical permission from York District Hospital (York, UK) and Castle Hill Hospital (Cottingham, UK). Benign prostatic hyperplasia (BPH) and prostate cancer samples were obtained from TURP (transurethral resection of the prostate), radical prostatectomy (laparoscopic and open) and cystectomy operations. All patients gave written consent for their tissue to be used for research and all patient samples were anonymised. Permission was approved by the Local Research Ethical Committees, associated with York District Hospital and Castle Hill Hospital. Permission was administered by the Yorkshire and Humber Research Ethics Committee.
Prostate epithelial cells were cultured as previously described in stem cell media (SCM) consisting of keratinocyte serum-free media (KSFM) with bovine pituitary extract (BPE) and epidermal growth factor (EGF), glutamine, stem cell factor (SCF), granulocyte macrophage colony stimulating factor (GM-CSF), leukaemia inhibitory factor (LIF) and cholera toxin. Cells were grown with STO feeder cells (irradiated at 60 Gy) on collagen I-coated plates.
as §2, §3

In the case of [PdCl(terpy)](sac)⋅2 H2O [Pd complex], the IC50 (PNT1A, PNT2-C2, BPH-1; PNT2-C2, BPH-1, 24 h) is reported as 15.8 µM, the IC50 (PNT1A, PNT2-C2, BPH-1; PNT2-C2, BPH-1, 48 h) is reported as 6.77 µM and the IC50 (PNT1A, PNT2-C2, BPH-1; PNT2-C2, BPH-1, 72 h) is reported as 0.38 µM and 0.383 µM. The “sub-G1 DNA content (cell death)” value ([1]; PC3 cells) was “almost no change”, the “sub-G1 DNA content (cell death)” value ([1]; all cell lines except PC3) was “increase in cells with sub-G1 DNA content” and the “S and G2 peaks” value ([1]; normal cells (BPH-1, PNT2-C2)) was “reduction in the S and G2 peaks”. The IC50 (PNT1A; 24 h) was 28 µM, the IC50 (PNT1A; 48 h) was 1.26 µM and the IC50 (PNT1A; 72 h) was 0.106 µM. For the same substance, the IC50 (P4E6; P4E6, 24 h) was 21.8 µM, the IC50 (P4E6; P4E6, 48 h) was 9.66 µM and the IC50 (P4E6; P4E6, 72 h) was 4.37 µM. For the same substance, the IC50 (PC-3; PC-3, 24 h) was 98.9 µM, the IC50 (PC-3; PC-3, 48 h) was 49.1 µM and the IC50 (PC-3; PC-3, 72 h) was 26.8 µM. It also gave an IC50 (BPH-1; BPH-1, 24 h) of 17.6 µM, an IC50 (BPH-1; BPH-1, 48 h) of 1.88 µM and an IC50 (BPH-1; BPH-1, 72 h) of 0.14 µM. The IC50 (LNCaP; 24 h) was 106 µM, the IC50 (LNCaP; 48 h) was 11.9 µM and the IC50 (LNCaP; 72 h) was 3.43 µM. It also gave an IC50 (PNT2-C2; PNT2-C2, 24 h) of 1.73 µM, an IC50 (PNT2-C2; PNT2-C2, 48 h) of 17.2 µM and an IC50 (PNT2-C2; PNT2-C2, 72 h) of 0.903 µM. For the same substance, the “concentrations having a significant anti-growth effect on all samples” value ([2]; BPH and Gleason 6/7 samples, 72 h) was “higher than 6.25”, the “lowest concentration inducing a significant anti-growth effect” value ([2]; primary cultures, previous experiments (MTS)) was 6.25 µM and the “cleaved caspase-3 (apoptosis)” value (cleaved caspase-3; BPH-1, PNT2-C2 and P4E6 cells) was “clear induction of cleaved caspase-3”. For the same substance, the “cleaved caspase-3 (apoptosis)” value (cleaved caspase-3; LNCaP cells) was “only observed after treatment with 25 µM Pd complex”, the “cleaved caspase-3 (apoptosis)” value (cleaved caspase-3; PC3 cells) was “no evidence of cleaved caspase-3” and the IC50 (BPH primary cells; BPH primary cells, sample 1608, 72 h, read-out: IC50) was 5.97 µM. For the same substance, the IC50 (BPH primary cells; BPH primary cells, sample 3108, 72 h, read-out: IC50) was 7.33 µM, the IC50 (BPH primary cells; BPH primary cells, sample 7611, 72 h, read-out: IC50) was 6.97 µM and the IC50 (BPH primary cells; BPH primary cells, sample 8109, 72 h, read-out: IC50) was 14.4 µM. For the same substance, the IC50 (BPH primary cells; average of BPH primary cells, 72 h, read-out: IC50 AVERAGE) was 8.67 µM and the “reduction of cell viability compared to etoposide” value (BPH primary cells; benign samples, both at 25 µM, 72 h, median values) was “at least 5.6 fold”.
